The test system of the test is L1210 leukemia ip in BDF1 mice, survival T/C. The test can be described thus: NCI In Vivo Anticancer Drug Screen. Data for tumor model L1210 Leukemia (intraperitoneal) in B6D2F1 (BDF1) mice. The conditions noted are these: endpoint: mean survival time, higher = longer survival. The method in brief: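 Transplantable tumor model; survival measured in treated vs vehicle control mice. Value = treated/control.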

Where [1] appears, read: dose: 100.0 mg/kg/injection, schedule: Q04DX003 (ip), vehicle: Klucel (hydroxypropylcellulose) (HPC).
Setting [2] is: dose: 200.0 mg/kg/injection, schedule: Q04DX003 (ip), vehicle: Klucel (hydroxypropylcellulose) (HPC).
[3] abbreviates: dose: 100.0 mg/kg/injection, schedule: Q04DX003 (ip), vehicle: saline with Tween-80.
The mark [4] stands for this setting: dose: 200.0 mg/kg/injection, schedule: Q04DX003 (ip), vehicle: saline with Tween-80.
Setting [5] is: dose: 100.0 mg/kg/injection, schedule: Q01DX001 (ip), vehicle: carboxymethylcellulose (CMC).
Where [6] appears, read: dose: 200.0 mg/kg/injection, schedule: Q01DX001 (ip), vehicle: carboxymethylcellulose (CMC).
[7] abbreviates: dose: 400.0 mg/kg/injection, schedule: Q01DX001 (ip), vehicle: carboxymethylcellulose (CMC).
Where [8] appears, read: dose: 100.0 mg/kg/injection, schedule: Q04DX003 (ip), vehicle: saline.
Where [9] appears, read: dose: 200.0 mg/kg/injection, schedule: Q04DX003 (ip), vehicle: saline.
Setting [10] is: dose: 400.0 mg/kg/injection, schedule: Q04DX003 (ip), vehicle: saline.
Where [11] appears, read: dose: 100.0 mg/kg/injection, schedule: Q01DX001 (ip), vehicle: Klucel (hydroxypropylcellulose) (HPC).
Setting [12] is: dose: 200.0 mg/kg/injection, schedule: Q01DX001 (ip), vehicle: Klucel (hydroxypropylcellulose) (HPC).
[13] abbreviates: dose: 400.0 mg/kg/injection, schedule: Q01DX001 (ip), vehicle: Klucel (hydroxypropylcellulose) (HPC).
Setting [14] is: dose: 400.0 mg/kg/injection, schedule: Q04DX003 (ip), vehicle: Klucel (hydroxypropylcellulose) (HPC).

Several values for one entry are separate records, joined by “and”; a condition that tells them apart may be missing. Identical values can stand only once. Toxic doses and inconclusive results are not listed.

On to `O=C(O)c1ccc(OCCOc2ccccc2)c(Cl)c1`, for which the T/C (dose: 100.0 mg/kg/injection, schedule: Q01DX009 (ip), vehicle: gum acacia) was 97 % of control; the T/C (dose: 200.0 mg/kg/injection, schedule: Q01DX009 (ip), vehicle: gum acacia) was 88 % of control; the T/C (dose: 400.0 mg/kg/injection, schedule: Q01DX009 (ip), vehicle: gum acacia) is 92 % of control.
For `Cc1cccc[n+]1CCC(N)=O`, the T/C (dose: 6.25 mg/kg/injection, schedule: Q01DX009 (ip), vehicle: saline) was 97 % of control; the T/C (dose: 12.5 mg/kg/injection, schedule: Q01DX009 (ip), vehicle: saline) is 97 % of control; the T/C (dose: 25.0 mg/kg/injection, schedule: Q01DX009 (ip), vehicle: saline) is 108 % of control.
With `O=C(Nc1ccc(S(=O)(=O)O)cc1)c1ccc(C(=O)Nc2ccc(S(=O)(=O)O)cc2)cc1`, the T/C runs as follows: (dose: 30.0 mg/kg/injection, schedule: Q01DX Z (ip), vehicle: saline) 91 % of control; (dose: 60.0 mg/kg/injection, schedule: Q01DX Z (ip), vehicle: saline) 97 % of control; (dose: 120.0 mg/kg/injection, schedule: Q01DX Z (ip), vehicle: saline) 93 % of control.
As for `O=S(c1ccccc1)c1c(Cl)c(Cl)nc(Cl)c1Cl` (stereo not drawn), the T/C reads like this: (dose: 6.25 mg/kg/injection, schedule: Q01DX009 (ip), vehicle: Klucel (hydroxypropylcellulose) (HPC)) 104 % of control; (dose: 12.5 mg/kg/injection, schedule: Q01DX009 (ip), vehicle: Klucel (hydroxypropylcellulose) (HPC)) 106 % of control; (dose: 25.0 mg/kg/injection, schedule: Q01DX009 (ip), vehicle: Klucel (hydroxypropylcellulose) (HPC)) 104 % of control; under setting [1], 105 % of control; under setting [2], 90 % of control.
Turning to `CN1C(=O)CN(CCN2CC(=O)N(C)C2=S)C1=S`, the T/C reads like this: (dose: 100.0 mg/kg/injection, schedule: Q04DX002 (ip), vehicle: Klucel (hydroxypropylcellulose) (HPC)) 105 % of control; (dose: 200.0 mg/kg/injection, schedule: Q04DX002 (ip), vehicle: Klucel (hydroxypropylcellulose) (HPC)) 97 % of control; (dose: 400.0 mg/kg/injection, schedule: Q04DX002 (ip), vehicle: Klucel (hydroxypropylcellulose) (HPC)) 90 % of control.
Turning to `COC(OC)c1[nH]c(=S)[nH]c(=O)c1Cc1cc(C)ccc1C`, the T/C by setting is: (dose: 100.0 mg/kg/injection, schedule: Q01DX009 (ip), vehicle: saline) 99 % of control; (dose: 200.0 mg/kg/injection, schedule: Q01DX009 (ip), vehicle: saline) 101 % of control; (dose: 400.0 mg/kg/injection, schedule: Q01DX009 (ip), vehicle: saline) 103 % of control.
For `CCCCCCCC(=O)Nc1ccc(C)cc1C`, the T/C is, setting by setting: under setting [3], 95 % of control; under setting [4], 98 % of control; (dose: 400.0 mg/kg/injection, schedule: Q04DX003 (ip), vehicle: saline with Tween-80) 94 % of control.
`N=c1ccc2cc3ccc4ccccc4c3n(O)c-2c1`: the T/C runs as follows: (dose: 100.0 mg/kg/injection, schedule: Q01DX001 (ip), vehicle: saline with Tween-80) 113 % of control; (dose: 200.0 mg/kg/injection, schedule: Q01DX001 (ip), vehicle: saline with Tween-80) 95 % of control; (dose: 400.0 mg/kg/injection, schedule: Q01DX001 (ip), vehicle: saline with Tween-80) 113 % of control.
In the case of `c1nc(NCCc2cnc[nH]2)c2[nH]cnc2n1`, the T/C is 95 % of control under setting [5], 90 % of control under setting [6] and 97 % of control under setting [7].
On the same counts, the results for `C=CCC1CCCCC1` are 104 % of control, 105 % of control and 104 % of control.
On to `CCOC(CCc1cnc[nH]c1=O)OCC`, for which the T/C runs as follows: under setting [8], 106 % of control; under setting [9], 97 % of control; under setting [10], 93 % of control.
Consider `COC1OCC(O)C(NC(C)=O)C1O` (stereo not drawn), for which the T/C runs as follows: (dose: 100.0 mg/kg/injection, schedule: Q01DX001 (ip), vehicle: saline) 105 % of control; (dose: 200.0 mg/kg/injection, schedule: Q01DX001 (ip), vehicle: saline) 107 % of control; (dose: 400.0 mg/kg/injection, schedule: Q01DX001 (ip), vehicle: saline) 100 % of control.
With `CC1(ON(c2cc(Cl)cc(Cl)c2)C2(C)c3ccccc3-c3ccccc32)c2ccccc2-c2ccccc21`, the T/C is 88 % of control under setting [3] and 97 % of control under setting [4].
On to `CC1CN1CCCNC(=O)C(=O)NCCCN1CC1C` (stereo not drawn), for which the T/C by setting is: (dose: 12.5 mg/kg/injection, schedule: Q04DX003 (ip), vehicle: saline) 110 % of control; (dose: 50.0 mg/kg/injection, schedule: Q04DX003 (ip), vehicle: saline) 168 % of control.
With `Nc1nc2nnc(-c3ccccc3)c(-c3ccccc3)n2n1`, the T/C under setting [11] is 93 % of control; the T/C under setting [1] was 96 % of control; the T/C under setting [12] is 93 % of control; the T/C under setting [2] was 101 % of control; the T/C under setting [13] is 92 % of control; the T/C under setting [14] is 91 % of control.
Regarding `CC1(C)CC(=O)CC(=C2C(=O)NC(=O)NC2=O)C1`, the T/C under setting [5] was 89 % of control; the T/C (dose: 100.0 mg/kg/injection, schedule: Q01DX002 (ip), vehicle: saline with Tween-80) was 92 % of control; the T/C (dose: 100.0 mg/kg/injection, schedule: Q04DX002 (ip), vehicle: saline with Tween-80) was 103 % of control; the T/C under setting [6] was 92 % of control; the T/C (dose: 200.0 mg/kg/injection, schedule: Q01DX002 (ip), vehicle: saline with Tween-80) was 98 % of control; the T/C (dose: 200.0 mg/kg/injection, schedule: Q04DX002 (ip), vehicle: saline with Tween-80) was 111 % of control. The T/C is 87 % of control under setting [7]; 95 % of control (dose: 400.0 mg/kg/injection, schedule: Q01DX002 (ip), vehicle: saline with Tween-80); 100 % of control (dose: 400.0 mg/kg/injection, schedule: Q04DX002 (ip), vehicle: saline with Tween-80).
Take `O=C(Nc1ccccc1C(=O)NC1CCCC1)NC1CCCC1`: the T/C is 89 % of control under setting [1] and 94 % of control under setting [2].
`CN(C)C(=S)Oc1ccc(C(C)(C)C)cc1`: the T/C by setting is: under setting [11], 96 % of control; under setting [12], 98 % of control; under setting [13], 90 % of control.
Regarding `O=C(O)CCN1C/C(=C\c2ccccc2)C(=O)C1=O`, the T/C was 101 % of control under setting [8], 101 % of control under setting [9] and 101 % of control under setting [10].
Regarding `Cc1ccc(/C=N/NC(=O)CNC(=O)c2ccccc2)cc1`, the T/C by setting is: (dose: 100.0 mg/kg/injection, schedule: Q01DX009 (ip), vehicle: saline with Tween-80) 93 % of control; (dose: 200.0 mg/kg/injection, schedule: Q01DX009 (ip), vehicle: saline with Tween-80) 96 % of control; (dose: 400.0 mg/kg/injection, schedule: Q01DX009 (ip), vehicle: saline with Tween-80) 98 % of control.
As to `CC(=O)C(CCC#N)(CCC#N)C(=O)Nc1ccccc1`, the T/C under setting [1] is 97 % of control, the T/C under setting [2] was 98 % of control and the T/C under setting [14] was 95 % of control.
In the case of `O=C(C=C(C(F)(F)F)C(F)(F)F)c1ccc(Cl)c([N+](=O)[O-])c1`, the T/C is 98 % of control (dose: 0.5 mg/kg/injection, schedule: Q01DX009 (ip), vehicle: other); 95 % of control (dose: 1.0 mg/kg/injection, schedule: Q01DX009 (ip), vehicle: other); 101 % of control (dose: 2.5 mg/kg/injection, schedule: Q01DX009 (ip), vehicle: other); 96 % of control (dose: 2.5 mg/kg/injection, schedule: Q01DX009 (ip), vehicle: saline with Tween-80); 103 % of control (dose: 6.0 mg/kg/injection, schedule: Q01DX001 (ip), vehicle: saline with Tween-80); 98 % of control (dose: 12.0 mg/kg/injection, schedule: Q01DX001 (ip), vehicle: saline with Tween-80). Moreover, under “dose: 25.0 mg/kg/injection, schedule: Q01DX001 (ip), vehicle: saline with Tween-80”, the T/C was 95 % of control and 100 % of control.

These data come from PubChem BioAssay AID248 (DTP/NCI, 2004).
